Results: patent US9527867B2, “Antibacterial biaromatic derivatives” (Actelion Pharmaceuticals Ltd., priority 2013, dated 2016)
≈ marks a conversion by molar mass, not a printed value.

Experiments:
Experiment in all cases: Bacterial growth minimal inhibitory concentration (broth microdilution, CLSI M7-A7)
Type in all cases: cell-based
[1] = test system: Staphylococcus aureus ATCC29213; details: Staphylococcus aureus, ATCC29213, cation-adjusted Mueller-Hinton Broth, methicillin-sensitive and quinolone-sensitive strain, read-out: MIC for S. aureus ATCC29213
Procedure: (§1) Minimal Inhibitory Concentrations (MICs; mg/L) were determined in cation-adjusted Mueller-Hinton Broth by a microdilution method following the description given in “Methods for Dilution Antimicrobial Susceptibility Tests for Bacteria that Grow Aerobically”, Approved standard, 7th ed., Clinical and Laboratory Standards Institute (CLSI) Document M7-A7, Wayne, Pa., USA (2006).
(§2) All Example compounds were tested against several Gram positive and Gram negative bacteria. […] Staphylococcus aureus A798, Enterococcus faecium A949 and Acinetobacter baumannii T6474 are multiply-resistant strains (in particular quinolone-resistant), while Moraxella catarrhalis A894 is a quinolone-sensitive strain and Staphylococcus aureus ATCC29213 is a methicillin-sensitive and quinolone-sensitive strain.

[2] = test system: Enterococcus faecium A949; details: Enterococcus faecium, A949, cation-adjusted Mueller-Hinton Broth, multiply-resistant strain (in particular quinolone-resistant), read-out: MIC for E. faecium A949
Procedure: as §1, §2

[3] = test system: Staphylococcus aureus A798; details: Staphylococcus aureus, A798, cation-adjusted Mueller-Hinton Broth, multiply-resistant strain (in particular quinolone-resistant), read-out: MIC for S. aureus A798
Procedure: as §1, §2

[4] = test system: Moraxella catarrhalis A894; details: Moraxella catarrhalis, A894, cation-adjusted Mueller-Hinton Broth, quinolone-sensitive strain
Procedure: as §1, §2

[5] = test system: Acinetobacter baumannii T6474; details: Acinetobacter baumannii, T6474, cation-adjusted Mueller-Hinton Broth, multiply-resistant strain (in particular quinolone-resistant)
Procedure: as §1, §2

MIC [1] [µg/mL]	MIC [2] [µg/mL]	MIC [3] [µg/mL]	MIC [4] [µg/mL]	MIC [5] [µg/mL]	Compound
0.125 (≈ 0.255 µM)	1 (≈ 2.04 µM)	0.25 (≈ 0.51 µM)	0.063 (≈ 0.128 µM)	0.5 (≈ 1.02 µM)	COc1cccc(-c2cccc(CNCC[C@@H]3CN(c4ccc5c(c4)NC(=O)CS5)C(=O)O3)n2)c1 [Example 20, 6-[(R)-5-(2-{[6-(3-methoxy-phenyl)-pyridin-2-ylmethyl]-amino}-ethyl)-2-oxo-oxazolidin-3-yl]-4H-benzo[1,4]thiazin-3-one]
0.25 (≈ 0.509 µM)	2 (≈ 4.07 µM)	0.5 (≈ 1.02 µM)	0.063 (≈ 0.128 µM)	1 (≈ 2.03 µM)	COc1cccc(-c2cccc(CNCC[C@@H]3CN(c4ccc5c(c4)NC(=O)CS5)C(=O)O3)n2)n1 [Example 22, 6-((R)-5-{2-[(6′-methoxy-[2,2]bipyridinyl-6-ylmethyl)-amino]-ethyl}-2-oxo-oxazolidin-3-yl)-4H-benzo[1,4]thiazin-3-one]
0.5 (≈ 1.02 µM)	4 (≈ 8.14 µM)	0.5 (≈ 1.02 µM)	0.063 (≈ 0.128 µM)	1 (≈ 2.03 µM)	COc1cc(-c2cccc(CNCC[C@@H]3CN(c4ccc5c(c4)NC(=O)CS5)C(=O)O3)c2)ncn1 [Example 24, 6-((R)-5-{2-[3-(6-methoxy-pyrimidin-4-yl)-benzylamino]-ethyl}-2-oxo-oxazolidin-3-yl)-4H-benzo[1,4]thiazin-3-one]
0.5 (≈ 0.959 µM)	4 (≈ 7.67 µM)	0.25 (≈ 0.479 µM)	0.063 (≈ 0.121 µM)	2 (≈ 3.83 µM)	COc1cc(-c2cccc(CNCC[C@@H]3CN(c4ccc5c(c4)NC(=O)CS5)C(=O)O3)c2)nc(OC)n1 [Example 26, 6-((R)-5-{2-[3-(2,6-dimethoxy-pyrimidin-4-yl)-benzylamino]-ethyl}-2-oxo-oxazolidin-3-yl)-4H-benzo[1,4]thiazin-3-one]
0.063 (≈ 0.121 µM)	1 (≈ 1.92 µM)	0.031 (≈ 0.0594 µM)	≤ 0.016	0.5 (≈ 0.959 µM)	COc1cc(OC)nc(-c2cccc(CNCC[C@@H]3CN(c4ccc5c(c4)NC(=O)CS5)C(=O)O3)c2)n1 [Example 27, 6-((R)-5-{2-[3-(4,6-dimethoxy-pyrimidin-2-yl)-benzylamino]-ethyl}-2-oxo-oxazolidin-3-yl)-4H-benzo[1,4]thiazin-3-one]
0.25 (≈ 0.478 µM)	4 (≈ 7.65 µM)	0.25 (≈ 0.478 µM)	0.063 (≈ 0.121 µM)	1 (≈ 1.91 µM)	COc1nc(OC)nc(-c2cccc(CNCC[C@@H]3CN(c4ccc5c(c4)NC(=O)CS5)C(=O)O3)c2)n1 [Example 28, 6-((R)-5-{2-[3-(4,6-dimethoxy-[1,3,5]triazin-2-yl)-benzylamino]-ethyl}-2-oxo-oxazolidin-3-yl)-4H-benzo[1,4]thiazin-3-one]
0.125 (≈ 0.266 µM)	2 (≈ 4.26 µM)	0.25 (≈ 0.532 µM)	≤ 0.016	0.125 (≈ 0.266 µM)	N#Cc1cccc(-c2cccc(CNCC[C@@H]3CN(c4ccc5c(n4)NC(=O)CO5)C(=O)O3)c2)c1 [Example 33, 3′-({2-[(R)-2-oxo-3-(3-oxo-3,4-dihydro-2H-pyrido[3,2-b][1,4]oxazin-6-yl)-oxazolidin-5-yl]-ethylamino}-methyl)-biphenyl-3-carbonitrile]
0.063 (≈ 0.133 µM)	1 (≈ 2.11 µM)	0.063 (≈ 0.133 µM)	≤ 0.016	0.125 (≈ 0.264 µM)	COc1cccc(-c2cccc(CNCCc3cn(-c4ccc5c(n4)NC(=O)CO5)c(=O)o3)c2)n1 [Example 35, 6-(5-{2-[3-(6-methoxy-pyridin-2-yl)-benzylamino]-ethyl}-2-oxo-oxazol-3-yl)-4H-pyrido[3,2-b][1,4]oxazin-3-one]
0.063 (≈ 0.135 µM)	0.5 (≈ 1.07 µM)	0.063 (≈ 0.135 µM)	≤ 0.016	0.063 (≈ 0.135 µM)	N#Cc1cccc(-c2cccc(CNCCc3cn(-c4ccc5c(n4)NC(=O)CO5)c(=O)o3)c2)c1 [Example 36, 3′-({2-[2-oxo-3-(3-oxo-3,4-dihydro-2H-pyrido[3,2-b][1,4]oxazin-6-yl)-2,3-dihydro-oxazol-5-yl]-ethylamino}-methyl)-biphenyl-3-carbonitrile]
1 (≈ 2.04 µM)	4 (≈ 8.15 µM)	1 (≈ 2.04 µM)	0.125 (≈ 0.255 µM)	2 (≈ 4.08 µM)	COc1cccc(-c2cc(CNCC[C@@H]3CN(c4ccc5c(c4)NC(=O)CS5)C(=O)O3)ccn2)c1 [Example 39, 6-[(R)-5-(2-{[2-(3-methoxy-phenyl)-pyridin-4-ylmethyl]-amino}-ethyl)-2-oxo-oxazolidin-3-yl]-4H-benzo[1,4]thiazin-3-one]

Second part, the compound before the results:

Compound	MIC [1] [µg/mL]	MIC [2] [µg/mL]	MIC [3] [µg/mL]	MIC [4] [µg/mL]	MIC [5] [µg/mL]
N#Cc1cncc(-c2cccc(CNCC[C@@H]3CN(c4ccc5c(c4)NC(=O)CS5)C(=O)O3)c2)c1 [Example 17, 5-[3-({2-[(R)-2-oxo-3-(3-oxo-3,4-dihydro-2H-benzo[1,4]thiazin-6-yl)-oxazolidin-5-yl]-ethylamino}-methyl)-phenyl]-nicotinonitrile]	0.063 (≈ 0.13 µM)	1 (≈ 2.06 µM)	0.125 (≈ 0.257 µM)	≤ 0.016	0.125 (≈ 0.257 µM)
N#Cc1cccc(-c2cccc(CNCC[C@@H]3CN(c4ccc5c(c4)NC(=O)CS5)C(=O)O3)c2)n1 [Example 18, 6-[3-({2-[(R)-2-oxo-3-(3-oxo-3,4-dihydro-2H-benzo[1,4]thiazin-6-yl)-oxazolidin-5-yl]-ethylamino}-methyl)-phenyl]-pyridine-2-carbonitrile]	0.25 (≈ 0.515 µM)	4 (≈ 8.24 µM)	0.25 (≈ 0.515 µM)	0.031 (≈ 0.0638 µM)	0.25 (≈ 0.515 µM)
N#Cc1cnc(O)c(-c2cccc(CNCC[C@@H]3CN(c4ccc5c(c4)NC(=O)CS5)C(=O)O3)c2)c1 [Example 19, 6-hydroxy-5-[3-({2-[(R)-2-oxo-3-(3-oxo-3,4-dihydro-2H-benzo[1,4]thiazin-6-yl)-oxazolidin-5-yl]-ethylamino}-methyl)-phenyl]-nicotinonitrile]	1 (≈ 1.99 µM)	> 8	1 (≈ 1.99 µM)	0.125 (≈ 0.249 µM)	1 (≈ 1.99 µM)
COc1cccc(-c2ccnc(CNCC[C@@H]3CN(c4ccc5c(c4)NC(=O)CS5)C(=O)O3)c2)c1 [Example 21, 6-[(R)-5-(2-{[4-(3-methoxy-phenyl)-pyridin-2-ylmethyl]-amino}-ethyl)-2-oxo-oxazolidin-3-yl]-4H-benzo[1,4]thiazin-3-one]	0.125 (≈ 0.255 µM)	1 (≈ 2.04 µM)	0.125 (≈ 0.255 µM)	0.031 (≈ 0.0632 µM)	0.25 (≈ 0.51 µM)
COc1ccnc(-c2cccc(CNCC[C@@H]3CN(c4ccc5c(c4)NC(=O)CS5)C(=O)O3)c2)n1 [Example 23, 6-((R)-5-{2-[3-(4-methoxy-pyrimidin-2-yl)-benzylamino]-ethyl}-2-oxo-oxazolidin-3-yl)-4H-benzo[1,4]thiazin-3-one]	0.063 (≈ 0.128 µM)	1 (≈ 2.03 µM)	0.063 (≈ 0.128 µM)	≤ 0.016	0.25 (≈ 0.509 µM)
COc1cncc(-c2cccc(CNCC[C@@H]3CN(c4ccc5c(c4)NC(=O)CS5)C(=O)O3)c2)n1 [Example 25, 6-((R)-5-{2-[3-(6-methoxy-pyrazin-2-yl)-benzylamino]-ethyl}-2-oxo-oxazolidin-3-yl)-4H-benzo[1,4]thiazin-3-one]	0.031 (≈ 0.0631 µM)	1 (≈ 2.03 µM)	0.031 (≈ 0.0631 µM)	≤ 0.016	0.25 (≈ 0.509 µM)
COc1cc(-c2cccc(CNCC[C@@H]3CN(c4ccc5c(c4)NC(=O)CS5)C(=O)O3)c2)ccc1C(N)=O [Example 29, 3-methoxy-3′-({2-[(R)-2-oxo-3-(3-oxo-3,4-dihydro-2H-benzo[1,4]thiazin-6-yl)-oxazolidin-5-yl]-ethylamino}-methyl)-biphenyl-4-carboxylic acid amide]	1 (≈ 1.88 µM)	8 (≈ 15 µM)	2 (≈ 3.76 µM)	0.063 (≈ 0.118 µM)	2 (≈ 3.76 µM)
COc1cnnc(-c2cccc(CNCC[C@@H]3CN(c4ccc5c(c4)NC(=O)CS5)C(=O)O3)c2)c1 [Example 30, 6-((R)-5-{2-[3-(5-methoxy-pyridazin-3-yl)-benzylamino]-ethyl}-2-oxo-oxazolidin-3-yl)-4H-benzo[1,4]thiazin-3-one]	0.125 (≈ 0.254 µM)	4 (≈ 8.14 µM)	0.125 (≈ 0.254 µM)	0.031 (≈ 0.0631 µM)	0.25 (≈ 0.509 µM)
COc1ccc(C#N)c(-c2cccc(CNCC[C@@H]3CN(c4ccc5c(n4)NC(=O)CO5)C(=O)O3)c2)c1 [Example 32, 5-methoxy-3′-({2-[(R)-2-oxo-3-(3-oxo-3,4-dihydro-2H-pyrido[3,2-b][1,4]oxazin-6-yl)-oxazolidin-5-yl]-ethylamino}-methyl)-biphenyl-2-carbonitrile]	0.125 (≈ 0.25 µM)	2 (≈ 4 µM)	0.125 (≈ 0.25 µM)	≤ 0.016	0.5 (≈ 1 µM)
COc1ccc(C#N)c(-c2cccc(CNCCc3cn(-c4ccc5c(n4)NC(=O)CO5)c(=O)o3)c2)c1 [Example 37, 5-methoxy-3′-({2-[2-oxo-3-(3-oxo-3,4-dihydro-2H-pyrido[3,2-b][1,4]oxazin-6-yl)-2,3-dihydro-oxazol-5-yl]-ethylamino}-methyl)-biphenyl-2-carbonitrile]	0.063 (≈ 0.127 µM)	1 (≈ 2.01 µM)	0.063 (≈ 0.127 µM)	≤ 0.016	0.25 (≈ 0.503 µM)
N#Cc1ccc(O)c(-c2cc(CNCC[C@@H]3CN(c4ccc5c(c4)NC(=O)CS5)C(=O)O3)ccn2)c1 [Example 38, 4-hydroxy-3-[4-({2-[(R)-2-oxo-3-(3-oxo-3,4-dihydro-2H-benzo[1,4]thiazin-6-yl)-oxazolidin-5-yl]-ethylamino}-methyl)-pyridin-2-yl]-benzonitrile]	≤ 0.016	0.125 (≈ 0.249 µM)	≤ 0.016	≤ 0.016	0.063 (≈ 0.126 µM)
